Results: ChEMBL document CHEMBL3044894, “QSAR studies on a number of pyrrolidin-2-one antiarrhythmic arylpiperazinyls” (2012)

Tested on: Rattus norvegicus
Assay: Antiarrhythmic activity in anaesthetized rat assessed as inhibition of adrenaline-induced arrhythmia
Type: functional, Heart

`CCCNC(=O)OC(CN1CCN(c2ccccc2)CC1)CN1CCCC1=O` (stereo not drawn) and `CCNC(=O)OC(CN1CCN(c2ccccc2)CC1)CN1CCCC1=O` (stereo not drawn) are within 0.2 log units of each other in pED50: 1.52 for the first, 1.66 for the second.

`O=C1CCCN1CCCN1CCN(c2ccccc2O)CC1` and `O=C1CCCN1CCCN1CCN(c2ccccc2F)CC1` are within 0.2 log units of each other in pED50: 1.36 for the first, 1.54 for the second.

`O=C1CCCN1CC(O)CN1CCN(c2ccccc2)CC1` (stereo not drawn) and `O=C1CCCN1CC(O)CN1CCN(c2ccccc2F)CC1` (stereo not drawn) are within 0.2 log units of each other in pED50: 1.6 for the first, 1.79 for the second.

Going from `COc1ccccc1N1CCN(CC(O)CN2CCCC2=O)CC1` (stereo not drawn) to `CCOc1ccccc1N1CCN(CC(O)CN2CCCC2=O)CC1` (stereo not drawn), the pED50 rises from 1.43 to 1.97.

First: CCOc1ccccc1N1CCN(CCCN2CCCC2=O)CC1
Second: COc1ccccc1N1CCN(CCCN2CCCC2=O)CC1
The pED50 of the first is higher: 2.52 for the first, 1.79 for the second.

Going from `COc1cccc(N2CCN(CC(O)CN3CCCC3=O)CC2)c1` (stereo not drawn) to `O=C1CCCN1CC(O)CN1CCN(c2ccc(Cl)cc2)CC1` (stereo not drawn), the pED50 falls from 1.64 to 1.4.

Compared with `CCNC(=O)OC(CN1CCN(c2ccccc2OC)CC1)CN1CCCC1=O` (stereo not drawn), `CCCNC(=O)OC(CN1CCN(c2ccccc2OC)CC1)CN1CCCC1=O` (stereo not drawn) is lower in pED50: 1.92 for the first, 1.52 for the second.

First: O=C1CCCN1CCCN1CCN(c2cccc(C(F)(F)F)c2)CC1
Second: O=C1CCCN1CCCN1CCN(c2ccccc2)CC1
The pED50 of the first is lower: 1.45 for the first, 2.01 for the second.

`COc1ccc(Cl)cc1N1CCN(CC(O)CN2CCCC2=O)CC1` (stereo not drawn) and `O=C1CCCN1CC(O)CN1CCN(c2ccc(F)cc2F)CC1` (stereo not drawn) are within 0.2 log units of each other in pED50: 1.48 for the first, 1.54 for the second.

First: O=C1CCCN1CC(O)CN1CCN(c2ccccc2C(F)(F)F)CC1 (stereo not drawn)
Second: Cc1ccccc1N1CCN(CC(O)CN2CCCC2=O)CC1 (stereo not drawn)
The pED50 of the first is lower: 1.31 for the first, 1.55 for the second.

`Cc1ccccc1N1CCN(CC(O)CN2CCC(c3ccccc3)(c3ccccc3)C2=O)CC1` (stereo not drawn) and `COc1ccccc1N1CCN(CC(O)CN2CCC(c3ccccc3)(c3ccccc3)C2=O)CC1` (stereo not drawn) are within 0.2 log units of each other in pED50: 2.53 for the first, 2.37 for the second.

`CC(C)C(=O)OC(CN1CCN(c2ccccc2)CC1)CN1CCCC1=O` (stereo not drawn) and `CC(C)NC(=O)OC(CN1CCN(c2ccccc2Cl)CC1)CN1CCCC1=O` (stereo not drawn) are within 0.2 log units of each other in pED50: 1.88 for the first, 2 for the second.

Going from `COc1ccccc1N1CCN(CC(CN2CCCC2=O)OC(=O)NC(C)C)CC1` (stereo not drawn) to `CCCC(=O)OC(CN1CCN(c2ccccc2OC(C)C)CC1)CN1CCCC1=O` (stereo not drawn), the pED50 falls from 2.19 to 1.77.

Compared with `O=C1N(CC(O)CN2CCN(c3ccccc3C(F)(F)F)CC2)CCC1(c1ccccc1)c1ccccc1` (stereo not drawn), `CCOc1ccccc1N1CCN(CC(O)CN2CCC(c3ccccc3)(c3ccccc3)C2=O)CC1` (stereo not drawn) is higher in pED50: 2.13 for the first, 2.66 for the second.

First: O=C1CCCN1CCCN1CCN(c2ccccc2Cl)CC1
Second: O=C1CCCN1CC(O)CN1CCN(c2ccccc2O)CC1 (stereo not drawn)
The pED50 of the first is lower: 1.8 for the first, 2.23 for the second.

First: O=C1N(CC(O)CN2CCN(c3ccccc3)CC2)CCC1(c1ccccc1)c1ccccc1 (stereo not drawn)
Second: O=C(NCc1ccccc1)OC(CN1CCN(c2ccccc2)CC1)CN1CCCC1=O (stereo not drawn)
The pED50 of the first is higher: 2.38 for the first, 1.47 for the second.

Work on `CC(C)Oc1ccccc1N1CCN(CC(O)CN2CCCC2=O)CC1` (stereo not drawn) yielded a pED50 of 1.77.
